Measurements published in patent US11191742B2, “Methods of treating neurodegenerative disorders in a particular population” (ALZHEON, INC., priority 2015, dated 2021).

What was measured:
Format in all cases: in vivo, human
[1] = system: APOE4+ patients with Alzheimer's disease; assay: Phase 3 trials of tramiprosate, ADAS-Cog score, all APOE4+ patients; conditions: for ADAS-Cog Score Change over Standard of Care (Δ improvement vs control): All APOE4+ patients ≤85 years
Protocol: (§1) The delta value in all of these tables is calculated by measuring the increase in score over baseline for each patient in a treatment group and obtaining the mean increase for such group and then subtracting that value from the mean increase in score over baseline for all patients in the placebo group. Thus, a positive delta value in these tables represents an improvement over the placebo group. Phase 3 human clinical trials of tramiprosate to treat Alzheimer's disease at doses of 100 mg BID and 150 mg BID for up to 78 weeks were run in both North America and Europe (1691 total patients enrolled). Placebos in both trials were treatment with donepezil either alone or in combination with memantine. ADAS-Cog scores and CDR-SB scores were obtained every 13 weeks for patients that remained in the trial. The patients were genotyped for APOE4 and the severity of their disease was measured using MMSE prior to the beginning of treatment. The data from both trials were merged for certain statistical analyses. […] We then performed additional subgroup analysis, subgrouping by APOE4 genotype/allele status (APOE4 heterozygous or APOE4 homozygous) and by disease severity (mild vs moderate) to determine if the number of c alleles and/or the severity of disease predicted a better outcome of tramiprosate therapy. […] In Table 1, *control treatment is donepezil either alone or in combination with memantine. Positive delta values quantitate the amount by which average increase in ADAS-Cog Score points above baseline for the control group exceeded the average increase in ADAS-Cog Score points above baseline for the treatment group.

[2] = system: APOE4 heterozygous patients with Alzheimer's disease; assay: Phase 3 trials of tramiprosate, ADAS-Cog score, heterozygous APOE4+ patients; conditions: Heterozygous APOE4+ patients ≤85 years
Protocol: as §1, with “3,” for “1,”

[3] = system: APOE4/4 homozygous patients with Alzheimer's disease; assay: Phase 3 trials of tramiprosate, ADAS-Cog and CDR-SB by baseline MMSE, APOE4/4 homozygous subjects; conditions: 150 mg BID
Protocol: Analysis of the efficacy or tramiprosate in APOE4/4 homozygous subjects based on baseline MMSE was performed to evaluate for differences in drug response between Mild and Moderate patients. […] analyses were performed on the following baseline MMSE categories: Mild-to-Moderate AD population (baseline MMSE 16-26 inclusive), Mild AD population (baseline MMSE 20-26 inclusive), and the More Mild AD population (baseline MMSE 22-26 inclusive). The data is shown below in FIG. 7, panels A and B.

[4] = Mild (MMSE 20-26), 100 mg BID, 52 weeks
[5] = Mild (MMSE 20-26), 100 mg BID, 65 weeks
[6] = Mild (MMSE 20-26), 100 mg BID, 78 weeks
[7] = Mild (MMSE 20-26), 150 mg BID, 52 weeks
[8] = Mild (MMSE 20-26), 150 mg BID, 65 weeks
[9] = Mild (MMSE 20-26), 150 mg BID, 78 weeks
[10] = Mild-to-Moderate (MMSE 16-26), 100 mg BID, 52 weeks
[11] = Mild-to-Moderate (MMSE 16-26), 100 mg BID, 65 weeks
[12] = Mild-to-Moderate (MMSE 16-26), 100 mg BID, 78 weeks
[13] = Mild-to-Moderate (MMSE 16-26), 150 mg BID, 52 weeks
[14] = Mild-to-Moderate (MMSE 16-26), 150 mg BID, 65 weeks
[15] = Mild-to-Moderate (MMSE 16-26), 150 mg BID, 78 weeks
[16] = Moderate (MMSE 16-19), 100 mg BID, 52 weeks
[17] = Moderate (MMSE 16-19), 100 mg BID, 65 weeks
[18] = Moderate (MMSE 16-19), 100 mg BID, 78 weeks
[19] = Moderate (MMSE 16-19), 150 mg BID, 52 weeks
[20] = Moderate (MMSE 16-19), 150 mg BID, 65 weeks
[21] = Moderate (MMSE 16-19), 150 mg BID, 78 weeks

For `NCCCS(=O)(=O)O` [Tramiprosate, 3-amino-1-propanesulfonic acid], the “Effect on ADAS-Cog compared with the placebo” value ([1]; APOE4+ subgroup, both 100 mg and 150 mg treatment groups) was “statistically significant effect”, the “ADAS-Cog Score Change over Standard of Care (Δ improvement vs control)” value [1, 4] was 0.82 points and the “ADAS-Cog Score Change over Standard of Care (Δ improvement vs control)” value [1, 5] was 0.99 points. For the same compound, the “ADAS-Cog Score Change over Standard of Care (Δ improvement vs control)” value [1, 6] was 1.3 points, the “ADAS-Cog Score Change over Standard of Care (Δ improvement vs control)” value [1, 7] was 0.17 points and the “ADAS-Cog Score Change over Standard of Care (Δ improvement vs control)” value [1, 8] was 0.71 points. The “ADAS-Cog Score Change over Standard of Care (Δ improvement vs control)” value [1, 9] was 0.27 points, the “ADAS-Cog Score Change over Standard of Care (Δ improvement vs control)” value [1, 10] was 1.67 points and the “ADAS-Cog Score Change over Standard of Care (Δ improvement vs control)” value [1, 11] was 1.82 points. The “ADAS-Cog Score Change over Standard of Care (Δ improvement vs control)” value [1, 12] was 2.03 points, the “ADAS-Cog Score Change over Standard of Care (Δ improvement vs control)” value [1, 13] was 0.95 points and the “ADAS-Cog Score Change over Standard of Care (Δ improvement vs control)” value [1, 14] was 1.23 points. The “ADAS-Cog Score Change over Standard of Care (Δ improvement vs control)” value [1, 15] was 0.77 points, the “ADAS-Cog Score Change over Standard of Care (Δ improvement vs control)” value [1, 16] was 3.45 points and the “ADAS-Cog Score Change over Standard of Care (Δ improvement vs control)” value [1, 17] was 3.45 points. The “ADAS-Cog Score Change over Standard of Care (Δ improvement vs control)” value [1, 18] was 3.32 points, the “ADAS-Cog Score Change over Standard of Care (Δ improvement vs control)” value [1, 19] was 2.52 points and the “ADAS-Cog Score Change over Standard of Care (Δ improvement vs control)” value [1, 20] was 2.23 points. The “ADAS-Cog Score Change over Standard of Care (Δ improvement vs control)” value [1, 21] was 1.57 points, the “ADAS-Cog Score Change over Standard of Care (Δ improvement vs control)” value [2, 4] was 0.9 points and the “ADAS-Cog Score Change over Standard of Care (Δ improvement vs control)” value [2, 5] was −0.3 points. For the same compound, the “ADAS-Cog Score Change over Standard of Care (Δ improvement vs control)” value [2, 6] was 0.8 points, the “ADAS-Cog Score Change over Standard of Care (Δ improvement vs control)” value [2, 7] was 0.1 points and the “ADAS-Cog Score Change over Standard of Care (Δ improvement vs control)” value [2, 8] was −0.6 points. For the same compound, the “ADAS-Cog Score Change over Standard of Care (Δ improvement vs control)” value [2, 9] was −0.5 points, the “ADAS-Cog Score Change over Standard of Care (Δ improvement vs control)” value [2, 10] was 2.0 points and the “ADAS-Cog Score Change over Standard of Care (Δ improvement vs control)” value [2, 11] was 0.8 points. For the same compound, the “ADAS-Cog Score Change over Standard of Care (Δ improvement vs control)” value [2, 12] was 1.1 points, the “ADAS-Cog Score Change over Standard of Care (Δ improvement vs control)” value [2, 13] was 0.5 points and the “ADAS-Cog Score Change over Standard of Care (Δ improvement vs control)” value [2, 14] was 0.0 points. The “ADAS-Cog Score Change over Standard of Care (Δ improvement vs control)” value [2, 15] was −0.4 points, the “ADAS-Cog Score Change over Standard of Care (Δ improvement vs control)” value [2, 16] was 4.4 points and the “ADAS-Cog Score Change over Standard of Care (Δ improvement vs control)” value [2, 17] was 3.4 points. For the same compound, the “ADAS-Cog Score Change over Standard of Care (Δ improvement vs control)” value [2, 18] was 2 points, the “ADAS-Cog Score Change over Standard of Care (Δ improvement vs control)” value [2, 19] was 1.5 points and the “ADAS-Cog Score Change over Standard of Care (Δ improvement vs control)” value [2, 20] was 1.4 points. The “ADAS-Cog Score Change over Standard of Care (Δ improvement vs control)” value [2, 21] was 0 points, the “Improvement compared with patients with lower MMSE at baseline” value ([3]; Mild AD (baseline MMSE ≥20) or More Mild AD (baseline MMSE ≥22)) was “higher improvement” and the “Efficacy and cognitive benefit by baseline MMSE” value ([3]; baseline MMSE ≥22 (More Mild), 78 weeks) was “highest efficacy and a sustained cognitive benefit”.
